According to PubChem BioAssay AID651630 (Sanford-Burnham Center for Chemical Genomics, 2012):
Activity calls are given as the source filed them.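 The calls were made as follows: active = lipid-stain IC50 at or below a set limit, with nuclear-stain toxicity IC50 at least five times higher; inactive = the rest.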

How the values were obtained:
[1] = tested on: DAPI; experiment: TAG lipid buildup inhibition with viability readout – cell-based, panel, Nile Red and DAPI fluorescence, H9c2, dose response (AID 651630); details: H9c2 cells, DAPI nuclear fluorescence (cytotoxicity counter-readout), oleic acid;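 also: cells exposed to compound overnight before fixation and staining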
[2] = tested on: TAG; experiment: as above; details: H9c2 cells, Nile Red TAG fluorescence, oleic acid

| Structure (SMILES) | IC50 cytotoxicity (DAPI nuclear signal decrease) ([1]; mean of runs) | IC50 cytotoxicity (DAPI nuclear signal decrease) ([1]; run 1) | IC50 cytotoxicity (DAPI nuclear signal decrease) ([1]; run 2) | IC50 ([2]; mean of runs) | IC50 ([2]; run 1) | IC50 ([2]; run 2) |
| --- | --- | --- | --- | --- | --- | --- |
| CCN(C[C@H]1N[C@@](CC)(C(=O)OC)[C@H]2C(=O)N(Cc3ccccc3)C(=O)[C@@H]12)S(=O)(=O)c1ccc(C(C)(C)C)cc1 | > 25 µM (inactive) | > 25 µM | > 25 µM | 10 µM | 10.5 µM | 9.54 µM |
| COCCNC(=O)c1cc2c(-c3ccc(Cl)cc3)nn(C)c2s1 | > 25 µM (inactive) | > 25 µM | > 25 µM | > 25 µM (inactive) | > 25 µM | > 25 µM |
| CCOC(=O)c1cc(-c2ccncc2)nc2c1c(C)nn2-c1ccccn1 | > 25 µM (inactive) | > 25 µM | > 25 µM | – | 14.1 µM | > 25 µM |
| CN(C)CCCN1c2ccccc2Sc2ccc3ccccc3c21 | > 25 µM (inactive) | > 25 µM | > 25 µM | > 25 µM (inactive) | > 25 µM | > 25 µM |
| COC(=O)/C=C/c1ccccc1S(=O)(=O)N(Cc1ccccc1)Cc1ccco1 | > 25 µM (inactive) | > 25 µM | > 25 µM | > 25 µM (inactive) | > 25 µM | > 25 µM |
| COc1ccc(CCNc2nnc(Sc3nnnn3-c3ccccc3)s2)cc1OC | > 25 µM (inactive) | > 25 µM | > 25 µM | – | 10.3 µM | > 25 µM |
| CCOCCOC(=O)c1[nH]c2c(c1C)C(=O)CC(c1cccs1)C2 (centres undefined) | > 25 µM (inactive) | > 25 µM | > 25 µM | > 25 µM (inactive) | > 25 µM | > 25 µM |
| O=C(Nc1cccc(-c2csc(Nc3ccc(Cl)cc3)n2)c1)c1cccc(C(F)(F)F)c1 | > 25 µM (inactive) | > 25 µM | > 25 µM | 15.2 µM (inactive) | 13.6 µM | 16.7 µM |
| CCOc1ccccc1NC(=O)CCC(=O)Nc1ccccc1OCC | > 25 µM (inactive) | > 25 µM | > 25 µM | > 25 µM (inactive) | > 25 µM | > 25 µM |
| O=C1N[C@@H](Cc2ccccc2)COC(=O)[C@@H](Cc2ccc(F)cc2)CC/C=C/C[C@@H]1CC(=O)N(CCO)Cc1ccccc1 | > 25 µM (inactive) | > 25 µM | > 25 µM | 20.4 µM (inactive) | 18.5 µM | 22.3 µM |
| CNC(=S)NN=C(C)c1ccc(OC)cc1O | > 25 µM (inactive) | > 25 µM | > 25 µM | > 25 µM (inactive) | > 25 µM | > 25 µM |
| NC(=O)N/N=C/c1c(Sc2nnnn2-c2ccccc2)nc2ccccn2c1=O | 17.2 µM (inactive) | 15.7 µM | 18.7 µM | 10.7 µM | 15.3 µM | 6.11 µM |
| C=CCC[C@@H](Cc1ccc(F)cc1)C(=O)OC[C@@H](Cc1c[nH]c2ccccc12)NC(=O)[C@H](CC=C)CC(=O)N(CCO)Cc1ccccc1 | > 25 µM (inactive) | > 25 µM | > 25 µM | 6.99 µM | 6.29 µM | 7.69 µM |
| CCCC1O[C@@H]2C[C@H]3[C@@H]4CCC5=CC(=O)C=C[C@]5(C)[C@H]4[C@@H](O)C[C@]3(C)[C@]2(C(=O)CO)O1 (some centres undefined) | – | > 25 µM | > 25 µM | 3.49 µM | 3.52 µM | 3.46 µM |
| Cc1cccc2c(C(=O)N3CCN(c4ccccc4)CC3)cc(-c3ccncc3)nc12 | > 25 µM (inactive) | > 25 µM | > 25 µM | 8.06 µM | 7.82 µM | 8.31 µM |
| CCCSc1nc(SCC(=O)NCc2ccccc2)c2c3c(sc2n1)COC(C)(CC)C3 (centres undefined) | > 25 µM (inactive) | > 25 µM | > 25 µM | > 25 µM (inactive) | > 25 µM | > 25 µM |
| CC(C)(C)c1cc(NCc2ccccn2)n2ncc(-c3ccc(Cl)cc3)c2n1 | > 25 µM (inactive) | > 25 µM | > 25 µM | > 25 µM (inactive) | > 25 µM | > 25 µM |
